Key:
[1] = target: T1, recombinant human CK2 (RRββ-holoenzyme) (Homo sapiens, UniProt P68400); assay: CK2 Kinase Assay (radiometric, [γ-33P] ATP); assay type: biochemical; conditions: final ATP concentration 15 μM, 10 min at 30° C., eight concentrations; read-out: protein kinase CK2 activity IC50
T1 construct: purchased Millipore
Description: CK2 Kinase Assay was conducted using the protocol as described in Pierre F. et al; J. Med. Chem. 2011, 54, 635-654. The tested compounds in aqueous solution were added at a volume of 10 μL to a reaction mixture comprising 10 μL of assay dilution buffer (ADB; 20 mM MOPS, pH 7.2, 25 mM β-glycerol phosphate, 5 mM EGTA, 1 mM sodium orthovanadate, and 1 mM dithiothreitol), 10 μL of substrate peptide (RRRDDDSDDD, dissolved in ADB at a concentration of 1 mM), 10 μL of recombinant human CK2 (RRββ-holoenzyme, 25 ng dissolved in ADB; Millipore). Reactions were initiated by the addition of 10 μL of ATP solution (90% 75 mMMgC2, 75 μM ATP (final ATP concentration: 15 μM) dissolved in ADB; 10% [γ-33P] ATP (stock 1 mCi/100 μL; 3000 Ci/mmol (Perkin-Elmer) and maintained for 10 min at 30° C. The reactions were quenched with 100 μL of 0.75% phosphoric acid and then transferred to and filtered through a phosphor cellulose filter plate (Millipore). After washing each well five times with 0.75% phosphoric acid, the plate was dried under vacuum for 5 min and, following the addition of 15 μL of scintillation fluid to each well, the residual radioactivity was measured using a Wallac luminescence counter. The IC50 values were derived from eight concentrations of test inhibitors.

[2] = test system: MDA-MB-231 (breast); assay: In vitro cytotoxic activity assay (MTT); assay type: cell-based; conditions: Homo sapiens; MDA-MB-231 cells, exposed for 96 hours, 50% inhibition of cell proliferation; read-out: Cytotoxicity activity IC50, MDA-MB-231 (breast)
Description: (§1) Compounds 1-16 were screened for their in vitro cytotoxic activity utilizing a 3-(4,5-dimethyl-thiazol-2-yl)-2,5-diphenyltetrazolium bromide (MTT) assay against selected cancer human cell lines consisting of PC3 (prostate), HCT116 (colon), A375 (melanoma), H1299 (lung), MIAPaCa-2 (pancreas), HL60 (leukemia), MCF7 (breast), MDA-MB-231 (breast) (T. Mosmann, J. Immunol. Meth., 1983, 65, 55-63). The cells were cultured at 37° C. in RMPI1640 medium supplemented with 10% fetal bovine serum, 50 IU/mL penicillin, and 50 μg/mL streptomycin in a 5% CO2 incubator. All cells were sub-cultured 3 times/week by trypsinisation. Viable cells were seeded and allowed to adhere for 12 hours before a test drug was added in 96-well plates at an initial density of 1.0×10^5 cells/mL. Tumor cell lines were separately exposed to various concentrations of the tested compounds followed by incubation at a temperature of 37° C. during 96 hours inside a medium of fresh RMPI 1640. Cells were subsequently incubated at 37° C. using MTT at 0.5 mg/mL during 4 hours. After removal of supernatant, formazan crystals were dissolved in isopropanol and the optical density was measured at 570 nm. CX-4945 was used as a positive control.

[3] = test system: A375 (melanoma); assay: In vitro cytotoxic activity assay (MTT); assay type: cell-based; conditions: Homo sapiens, A-375; A375 cells, exposed for 96 hours, 50% inhibition of cell proliferation; read-out: Cytotoxicity activity IC50, A375 (melanoma)
Description: as §1

[4] = test system: PC3 (prostate); assay: In vitro cytotoxic activity assay (MTT); assay type: cell-based; conditions: Homo sapiens, PC-3; PC3 cells, exposed for 96 hours, 50% inhibition of cell proliferation; read-out: Cytotoxicity activity IC50, PC3 (prostate)
Description: as §1

[5] = test system: H1299 (lung); assay: In vitro cytotoxic activity assay (MTT); assay type: cell-based; conditions: Homo sapiens, NCI-H1299; H1299 cells, exposed for 96 hours, 50% inhibition of cell proliferation; read-out: Cytotoxicity activity IC50, H1299 (lung)
Description: as §1

[6] = test system: MIAPaCa-2 (pancreas); assay: In vitro cytotoxic activity assay (MTT); assay type: cell-based; conditions: Homo sapiens, MIA PaCa-2; MIAPaCa-2 cells, exposed for 96 hours, 50% inhibition of cell proliferation; read-out: Cytotoxicity activity IC50, MIAPaCa-2 (pancreas)
Description: as §1

[7] = test system: HL60 (leukemia); assay: In vitro cytotoxic activity assay (MTT); assay type: cell-based; conditions: Homo sapiens, HL-60; HL60 cells, exposed for 96 hours, 50% inhibition of cell proliferation; read-out: Cytotoxicity activity IC50, HL60 (leukemia)
Description: as §1

[8] = test system: MCF7 (breast); assay: In vitro cytotoxic activity assay (MTT); assay type: cell-based; conditions: Homo sapiens; MCF7 cells, exposed for 96 hours, 50% inhibition of cell proliferation; read-out: Cytotoxicity activity IC50, MCF7 (breast)
Description: as §1

[9] = test system: HCT116 (colon); assay: In vitro cytotoxic activity assay (MTT); assay type: cell-based; conditions: Homo sapiens, HCT-116; HCT116 cells, exposed for 96 hours, 50% inhibition of cell proliferation; read-out: Cytotoxicity activity IC50, HCT116 (colon)
Description: as §1

T1 sequence (P68400 whole entry): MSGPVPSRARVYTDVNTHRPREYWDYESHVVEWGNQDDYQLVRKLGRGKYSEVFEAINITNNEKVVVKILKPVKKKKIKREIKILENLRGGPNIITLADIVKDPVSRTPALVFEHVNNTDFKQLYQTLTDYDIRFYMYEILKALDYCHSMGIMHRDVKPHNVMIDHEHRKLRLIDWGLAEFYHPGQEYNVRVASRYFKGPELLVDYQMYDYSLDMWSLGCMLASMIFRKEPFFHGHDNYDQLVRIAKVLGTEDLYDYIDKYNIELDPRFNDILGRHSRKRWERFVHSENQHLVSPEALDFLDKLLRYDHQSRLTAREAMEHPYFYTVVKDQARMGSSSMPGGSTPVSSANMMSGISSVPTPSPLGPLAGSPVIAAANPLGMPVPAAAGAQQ
T1 sequence (P67870 whole entry partner): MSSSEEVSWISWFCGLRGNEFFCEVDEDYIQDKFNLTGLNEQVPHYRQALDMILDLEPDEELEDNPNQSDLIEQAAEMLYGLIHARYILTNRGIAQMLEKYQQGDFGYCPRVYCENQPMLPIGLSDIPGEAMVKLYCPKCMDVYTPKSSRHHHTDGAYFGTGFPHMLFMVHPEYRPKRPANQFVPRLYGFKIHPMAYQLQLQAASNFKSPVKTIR

For `Clc1cccc(Nc2nc3[nH]c4cnccc4c3c3ccncc23)c1` [Compound 1, N-(3-chlorophenyl)-7H-pyrido[4′,3′:4,5]pyrrolo[2,3-c][2,7]naphthyridin-5-amine], the IC50 [1] was 334 nM, the IC50 [2] was 4400 nM and the IC50 [3] was 4700 nM. For the same compound, the IC50 [4] was 1300 nM, the IC50 [5] was 1800 nM and the IC50 [6] was 2400 nM. It also gave an IC50 [7] of 3300 nM, an IC50 [8] of 5200 nM and an IC50 [9] of 1500 nM.

From patent publication US12168662B1, “Pyrido[4′,3′:4,5]pyrrolo[2,3-c][2,7]naphthyridines compounds as CK2 inhibitors” (KING FAISAL UNIVERSITY, priority 2023, dated 2024)
